Test results reported in PMC8863796 (Communications Biology, 2022).

Assays:
[1] = target: T1, SARS-CoV-2 RdRp complex (nsp12/nsp7/nsp8) (Severe acute respiratory syndrome coronavirus 2, UniProt P0DTD1); test: Extension reactions of RNA template-loop-primers with nucleotide analogue triphosphates; format: biochemical; conditions: single-base extension of RNA template-loop-primers
T1 construct: made in house
Method: In total, 10 µL of 10 µM RNA template-loop-primers (5′-[…]-3′ for RDV-TP extension; 5′-[…]-3′ for SOF-TP extension) in 1 × RdRp reaction buffer was annealed by heating to 75 °C for 3 min and cooling to room temperature. In all, 5 µL of 8 µM RdRp complex (nsp12/nsp7/nsp8)[11],[20] in 1× reaction buffer was added to the annealed RNA template-loop-primer solution and incubated for an additional 10 min at room temperature. Finally, 5 µL of a solution containing 0.2 mM RDV-TP or 2 mM SOF-TP in 1× reaction buffer was added, and incubation was carried out for 2 h at 30 °C. The final concentrations of reagents in the 20 µL extension reactions were 2 µM nsp12/nsp7/nsp8, 5 µM RNA template-loop-primer, 50 µM RDV-TP, and 500 µM SOF-TP. The 1× reaction buffer contains the following reagents: 10 mM Tris-HCl pH 8, 10 mM KCl, 2 mM MgCl2 and 1 mM β-mercaptoethanol. Desalting of the reaction mixture was performed with an Oligo Clean & Concentrator kit (Zymo Research) resulting in ~10 µL purified aqueous RNA solutions. 1 µL of each solution was subjected to MALDI-TOF MS (Bruker ultrafleXtreme) analysis. The remaining ~9 µL extended template-loop-primer solutions were used to test exonuclease activity.
The RNA template-loop primer (5′-[…]-3′) was annealed at 75 °C for 3 min and cooled to room temperature for 25 min in 1× ThermoPol buffer before adding the other ingredients. The final 20 µL mixture containing 5 µM of the RNA template-loop primer, 250 µM, 500 µM or 1 mM AT-9010, 2 mM MnCl2 and 0.2 unit Therminator II in 1× ThermoPol buffer was incubated in a thermal cycler using the following protocol (28 cycles of 45 °C for 30 s, 55 °C for 30 s, 65 °C for 30 s). Desalting of the reaction mixture was performed with an Oligo Clean & Concentrator kit (Zymo Research) resulting in ~10 µL purified aqueous RNA solutions. 1 µL of each solution was subjected to MALDI-TOF MS (Bruker ultrafleXtreme) analysis. The remaining ~9 µL extended template-loop-primer solutions were used to test exonuclease activity. […]

[2] = target: SARS-CoV-2 exonuclease complex (nsp14/nsp10) (Severe acute respiratory syndrome coronavirus 2, UniProt P0DTD1); parameters: method as in earlier work; conditions: previously demonstrated; cited from earlier work

Structure (SMILES)	incorporation into RNA (template base opposite) [1]	inhibition of SARS-CoV-2 exonuclease [2]
C[C@@]1(F)[C@H](O)[C@@H](COP(=O)(O)OP(=O)(O)OP(=O)(O)O)O[C@H]1n1cnc2c(=O)[nH]c(N)nc21 [AT-9010, 2’-fluoro-2’-methyl guanosine-5’-triphosphate]	incorporated opposite C	
NC(=O)c1nc(F)cn([C@@H]2O[C@H](COP(=O)(O)OP(=O)(O)OP(=O)(O)O)[C@@H](O)[C@H]2O)c1=O [Favipiravir-RTP, Favipiravir-ribofuranosyl-5’-triphosphate]	incorporated into RNA opposite C or U	
O=c1nc(NO)ccn1[C@@H]1O[C@H](COP(=O)(O)OP(=O)(O)OP(=O)(O)O)[C@@H](O)[C@H]1O [NHC-TP, N^4-hydroxycytidine-5’-triphosphate]	incorporated opposite A or G	
COC[C@H]1C[C@@H](c2nc(-c3ccc4c(c3)COc3cc5c(ccc6nc([C@@H]7CC[C@H](C)N7C(=O)[C@@H](NC(=O)OC)C(C)C)[nH]c65)cc3-4)c[nH]2)N(C(=O)[C@H](NC(=O)OC)c2ccccc2)C1 [Velpatasvir]		can inhibit the SARS-CoV-2 exonuclease
